From ChEMBL document CHEMBL5137117, “Cytotoxic Cyclotides from Anchietea pyrifolia, a South American Plant Species” (J Nat Prod, 2022)
Bridge positions count the residues as written; N and C are the ends. Peptide text beside a SMILES is read from it.

Assays:
MCF7 = assay: Cytotoxicity against human MCF7 cells assessed as inhibition of cell growth measured after 72 hrs by MTT assay; format: functional, cell-based; conditions: MCF7, 72 h
[1] = Cytotoxicity against human HCT116-p53-null cells assessed as inhibition of cell growth measured after 72 hrs by MTT assay; format: functional, cell-based
[2] = Hemolytic activity in human red blood cells incubated for 2 hrs by microplate reader assay; format: toxicity, cell-based, Erythrocyte; conditions: red blood cells (erythrocytes), read-out: HD50
[3] = Hemolytic activity in human red blood cells at 78 uM incubated for 2 hrs by microplate reader assay relative to control; format: toxicity, cell-based, Erythrocyte; conditions: red blood cells (erythrocytes), read-out: Activity
HCT-116 = assay: Cytotoxicity against human HCT-116 cells assessed as inhibition of cell growth measured after 72 hrs by MTT assay; format: functional, cell-based; conditions: HCT-116, 72 h

SMILES	IC50 (MCF7)	IC50 [1]	HC50 at 2 h [2]	hemolysis at 2 h, 78 µM [3]	IC50 (HCT-116)
CC[C@H](C)[C@@H]1NC(=O)[C@H](C)NC(=O)[C@H](C)NC(=O)[C@H](CO)NC(=O)[C@H]([C@@H](C)CC)NC(=O)[C@@H]2CSSC[C@@H]3NC(=O)[C@H](C(C)C)NC(=O)[C@H](CCCCN)NC(=O)[C@H](CC(N)=O)NC(=O)[C@H](CCCCN)NC(=O)[C@@H]4CSSC[C@H](NC(=O)[C@H](CO)NC(=O)[C@H](CCC(=O)O)NC(=O)CNC(=O)[C@H](CSSC[C@H](NC(=O)CNC1=O)C(=O)N[C@@H](CO)C(=O)N4)NC(=O)[C@@H]1CCCN1C(=O)[C@H]([C@@H](C)CC)NC(=O)CNC(=O)[C@H](CC(N)=O)NC(=O)[C@H](CCCNC(=N)N)NC(=O)[C@H](Cc1ccc(O)cc1)NC3=O)C(=O)N[C@@H](C(C)C)C(=O)N[C@@H](Cc1c[nH]c3ccccc13)C(=O)N[C@@H]([C@@H](C)CC)C(=O)N1CCC[C@H]1C(=O)N2 (cyclo(AAIGCSCKNKVCYRNGIPCGESCVWIPCIS); disulfide 5-19, 7-23, 12-28)	5600 nM	1200 nM	> 156 µM	23%	800 nM
CC[C@H](C)[C@@H]1NC(=O)[C@H](CO)NC(=O)[C@H](CC(N)=O)NC(=O)[C@H](CCCCN)NC(=O)[C@H](Cc2ccc(O)cc2)NC(=O)[C@@H]2CSSC[C@@H]3NC(=O)[C@@H]4CCCN4C(=O)[C@H]([C@@H](C)CC)NC(=O)[C@H](Cc4c[nH]c5ccccc45)NC(=O)[C@H](C(C)C)NC(=O)[C@@H]4CSSC[C@H](NC(=O)[C@H](CO)NC(=O)[C@H](CSSC[C@H](NC(=O)[C@@H]5CCCN5C1=O)C(=O)NCC(=O)N[C@@H](CCC(=O)O)C(=O)N[C@@H](CO)C(=O)N4)NC(=O)CNC(=O)[C@H](C)NC(=O)[C@H](CC(C)C)NC(=O)[C@H](C)NC(=O)[C@H]([C@@H](C)O)NC(=O)[C@H](C(C)C)NC(=O)[C@H]([C@@H](C)O)NC3=O)C(=O)N[C@@H](CCCCN)C(=O)N[C@@H](CC(N)=O)C(=O)N[C@@H](CCCCN)C(=O)N[C@@H](C(C)C)C(=O)N2 (cyclo(AGCSCKNKVCYKNSIPCGESCVWIPCTVTAL); disulfide 3-17, 5-21, 10-26)	7300 nM	2300 nM	> 78 µM	< 50%	1400 nM
CC[C@H](C)[C@@H]1NC(=O)[C@H](C)NC(=O)[C@H](CO)NC(=O)[C@H](CO)NC(=O)[C@H]([C@@H](C)CC)NC(=O)[C@@H]2CSSC[C@@H]3NC(=O)[C@H](C(C)C)NC(=O)[C@H](CCCCN)NC(=O)[C@H](CC(N)=O)NC(=O)[C@H](CCCCN)NC(=O)[C@@H]4CSSC[C@H](NC(=O)[C@H](CO)NC(=O)[C@H](CCC(=O)O)NC(=O)CNC(=O)[C@H](CSSC[C@H](NC(=O)CNC1=O)C(=O)N[C@@H](CO)C(=O)N4)NC(=O)[C@@H]1CCCN1C(=O)[C@H]([C@@H](C)CC)NC(=O)CNC(=O)[C@H](CC(N)=O)NC(=O)[C@H](CCCNC(=N)N)NC(=O)[C@H](Cc1ccc(O)cc1)NC3=O)C(=O)N[C@@H](C(C)C)C(=O)N[C@@H](Cc1c[nH]c3ccccc13)C(=O)N[C@@H]([C@@H](C)CC)C(=O)N1CCC[C@H]1C(=O)N2 (cyclo(AIGCSCKNKVCYRNGIPCGESCVWIPCISS); disulfide 4-18, 6-22, 11-27)	7100 nM	2100 nM	> 156 µM	–	1400 nM
CC[C@H](C)[C@@H]1NC(=O)[C@H](C)NC(=O)[C@H]([C@@H](C)O)NC(=O)[C@H](C(C)C)NC(=O)[C@H]([C@@H](C)O)NC(=O)[C@@H]2CSSC[C@@H]3NC(=O)[C@H](C(C)C)NC(=O)[C@H](CCCCN)NC(=O)[C@H](CO)NC(=O)[C@H](CCCCN)NC(=O)[C@@H]4CSSC[C@H](NC(=O)[C@H](CO)NC(=O)[C@H](CCC(=O)O)NC(=O)CNC(=O)[C@H](CSSC[C@H](NC(=O)CNC(=O)[C@H]([C@@H](C)CC)NC1=O)C(=O)N[C@@H](CO)C(=O)N4)NC(=O)[C@@H]1CCCN1C(=O)[C@H](CC(C)C)NC(=O)CNC(=O)[C@H](CC(N)=O)NC(=O)[C@H](CCCCN)NC(=O)[C@H](Cc1ccc(O)cc1)NC3=O)C(=O)N[C@@H](C(C)C)C(=O)N[C@@H](Cc1ccccc1)C(=O)N[C@@H](CC(C)C)C(=O)N1CCC[C@H]1C(=O)N2 (cyclo(AIIGCSCKSKVCYKNGLPCGESCVFLPCTVT); disulfide 5-19, 7-23, 12-28)	5800 nM	1300 nM	–	–	1100 nM
CC[C@H](C)[C@@H]1NC(=O)CNC(=O)[C@H](CO)NC(=O)[C@H]([C@@H](C)CC)NC(=O)[C@@H]2CSSC[C@@H]3NC(=O)[C@H](C(C)C)NC(=O)[C@H](CCCCN)NC(=O)[C@H](CC(N)=O)NC(=O)[C@H](CO)NC(=O)[C@@H]4CSSC[C@H](NC(=O)[C@H](CO)NC(=O)[C@H](CCC(=O)O)NC(=O)CNC(=O)[C@H](CSSC[C@H](NC(=O)CNC(=O)[C@H](CC(C)C)NC1=O)C(=O)N[C@@H](CO)C(=O)N4)NC(=O)[C@@H]1CCCN1C(=O)[C@H](C(C)C)NC(=O)[C@H](CO)NC(=O)CNC(=O)[C@H](CC(N)=O)NC(=O)[C@H](Cc1ccc(O)cc1)NC(=O)[C@H](Cc1ccc(O)cc1)NC3=O)C(=O)N[C@@H](C(C)C)C(=O)N[C@@H](Cc1c[nH]c3ccccc13)C(=O)N[C@@H]([C@@H](C)CC)C(=O)N1CCC[C@H]1C(=O)N2 (cyclo(CGESCVWIPCISGILGCSCSNKVCYYNGSVP); disulfide 1-17, 5-19, 10-24)	5100 nM	2600 nM	22 µM	87%	2300 nM
COc1cccc2c1C(=O)c1c(O)c3c(c(O)c1C2=O)C[C@@](O)(C(=O)CO)C[C@@H]3O[C@H]1C[C@H](N)[C@H](O)[C@H](C)O1 [DOXORUBICIN]	500 nM	–	–	–	–
